We go through two molecules from patent publication US9101627B2, “Pharmaceutical compositions containing bradykinin antagonists and hyaluronic acid, and uses thereof” (ISTITUTO LUSO FARMACO D'ITALIA S.P.A., priority 2007, dated 2015).

Data set [1] relates to experimental model of osteoarthritis induced by intra-articular injection of sodium monoiodoacetate (MIA). The experiment in a line: MIA-induced osteoarthritis model, incapacitance test (weight imbalance between paws). The data set is classed as in vivo. The conditions noted are these: rat; for time of maximal inhibitory effect after administration / reduction of the pain caused by osteoarthritis: 3 μg/25 μl i.a., single compound; for reduction of the pain caused by osteoarthritis: 7 days after MIA; for inhibitory effect at higher dose: 10 μg/25 μl i.a. versus 3 μg/25 μl; for duration of antinociceptive effect: single compound i.a. The method, then:
The activity of MEN16132, icatibant and hyaluronic acid was measured in an experimental model of osteoarthritis induced by intra-articular injection of sodium monoiodoacetate (MIA) which inhibits glycolysis in the chondrocytes, thus causing damage and death to those cells with consequent degeneration of the joint surface, in a very similar way to human osteoarthritis.
MIA (1 mg/25 μl) was injected into the intra-articular space of the right knee of the rat, while 25 μl of saline was administered to the left knee as internal control.
The administration of MIA causes pain, difficulty of walking and inability to bear weight on the paw corresponding to the treated knee; the weight of the body therefore falls mainly on the left paw, to an extent directly proportional to the pain perceived. This effect persists for many weeks. The imbalance in weight on the two weight-bearing paws, evaluated in a non-invasive way with the incapacitance test, measures the pain resulting from the joint damage (osteoarthritis) induced by MIA.
The purpose of this test was to evaluate the protective effect of bradykinin B2 receptor antagonists against experimental osteoarthritis, and to establish the effect of co-administration of hyaluronic acid.
Seven days after the treatment with MIA, the compounds under study were injected, and the test was repeated at various times to measure the painkilling effect and its duration.

The test system of data set [2] is patients with symptomatic OA of the knee. The conditions noted are these: 58 patients, single intra-articular administration 90 μg/1 ml; cited from earlier work.
Data set [3] concerns patients with OA of the knee. As to conditions: intra-articular, 3×500 μg injections one week apart; cited from earlier work.

As to `Cc1cc(C)c2cccc(OCc3c(Cl)ccc(S(=O)(=O)NC4(C(=O)N5CCN(C(=O)[C@@H](N)CCC[N+](C)(C)C)CC5)CCOCC4)c3Cl)c2n1` [MEN16132, (4-(S)-Amino-5-(4-{4-[2,4-dichloro-3-(2,4-dimethyl-quinoline-8-yloxymethyl)-benzenesulphonylamino]-tetrahydro-pyran-4-carbonyl}-piperazin-1-yl)-5-oxo-pentyl]-trimethyl-ammonium], in data set [1], the “time of maximal inhibitory effect after administration” value was 3 days, the “reduction of the pain caused by osteoarthritis” value amounted to 55%, the “inhibitory effect at higher dose” value is “No further significant increase in inhibitory effect” and the “duration of antinociceptive effect” value is given as “lasted for over a week”.
On to `NC(N)=NCCC[C@@H](N)C(=O)N[C@@H](CCCN=C(N)N)C(=O)N1CCC[C@H]1C(=O)N1C[C@H](O)C[C@H]1C(=O)NCC(=O)N[C@@H](Cc1cccs1)C(=O)N[C@@H](CO)C(=O)N1Cc2ccccc2C[C@@H]1C(=O)N1[C@H](C(=O)N[C@@H](CCCN=C(N)N)C(=O)O)C[C@@H]2CCCC[C@@H]21` [icatibant, H-D-Arg-Arg-Pro-Hyp-Gly-Thi-Ser-D-Tic-Oic-Arg-OH], for which the “intensity of pain in the knee versus placebo” value in data set [2] is “reduced the intensity of pain in the knee to a greater extent than the placebo”. Also, in data set [1], the “time of maximal inhibitory effect after administration” value is recorded as 3 days, the “reduction of the pain caused by osteoarthritis” value came out at 40%, the “inhibitory effect at higher dose” value is given as “No further significant increase in inhibitory effect” and the “duration of antinociceptive effect” value is recorded as “lasted for over a week”. In addition, in data set [3], the “duration of analgesic response after the treatment” value is given as “up to 3 months” and the side effects entry was “negligible or no side effects”.
